Source: patent publication US20170145472A1, “METHOD OF DETECTING HELICASE ACTIVITY” (University of Macau, priority 2015, published 2017)

How the values were obtained:
[1] = Photophysical measurement; format: physicochemical; details: for Quantum yield: reference [Ru(bpy)3][PF6]2 in degassed acetonitrile
Method: Emission spectra and lifetime measurements for complexes were performed on a PTI TimeMaster C720 Spectrometer (Nitrogen laser: pulse output 337 nm) fitted with a 380 nm filter. Error limits were estimated: λ (±1 nm); τ (±10%); φ (±10%). All solvents used for the lifetime measurements were degassed using three cycles of freeze-vac-thaw.
Luminescence quantum yields were determined using the method of Demas and Crosby [Ru(bpy)3][PF6]2 in degassed acetonitrile as a standard reference solution (Φr=0.062) and calculated according to the following equation:
Φs=Φr(Br/Bs)(ns/nr)^2(Ds/Dr) • where the subscripts s and r refer to sample and reference standard solution respectively, n is the refractive index of the solvents, D is the integrated intensity, and Φ is the luminescence quantum yield. The quantity B was calculated by B=1−10^−AL, where A is the absorbance at the excitation wavelength and L is the optical path length.

[2] = target: T1, helicase (Hepatitis C virus genotype 1a, UniProt P27958); experiment: Luminescence response of complexes towards helicase alone; details: helicase alone, no DNA
T1 construct: upon the addition of 0.8 μM HCV NS3 helicase; purchased Prospec Inc. (Ness-Ziona, Israel)
Description: M G-quadruplex DNA over helicase, IG4/Ihelicase refers to the ratio of the lunminscent response of PS2. M G-quadruplex DNA over helicase.

[3] = tested on: PS2.M G-quadruplex DNA; experiment: Luminescence response of Ir(III) complexes towards different forms of DNA; format: binding; details: complex 1 μM, DNA 5 μM; PS2.M G-quadruplex vs ds17 and CCR5-DEL
Description: M G-quadruplex DNA (G4) over dsDNA (ds17) and ssDNA (CCRS-DEL), in particular IG4/IdsDNA refers to the ratio of the luminescent response of PS2. M G-quadruplex DNA over dsDNA (ds17); and IG4/IssDNA refers to the ratio of the luminescent response of PS2. M G-quadruplex DNA over ssDNA(CCR5-DEL).
M G-quadruplex DNA over dsDNA (ds17) and ssDNA (CCRS-DEL), in particular IG4/IdsDNA refers to the ratio of the luminescent response of PS2. M G-quadruplex DNA over dsDNA (ds17); and IG4/IssDNA refers to the ratio of the luminescent response of PS2. M G-quadruplex DNA over ssDNA(CCR5-DEL).
The G-quadruplex DNA-forming sequence (PS2. M) was annealed in Tris-HCl buffer (20 mM Tris, 100 mM KCl, pH 7.0) and were stored at −20° C. or less than −20° C. before use. Complex 1-17 (1 μM) was added to 5 μM of ssDNA, dsDNA or PS2. M G-quadruplex DNA in Tris-HCl buffer (20 mM Tris, pH 7.0).

[4] = target: T2, HCV NS3 helicase (Hepatitis C virus genotype 1a, UniProt P27958); experiment: G-quadruplex-based luminescent HCV NS3 helicase activity assay; format: biochemical; details: for inhibitory activity towards HCV NS3 helicase: 10 μM inhibitor, 0.8 μM helicase
T2 construct: upon the addition of 0.8 μM HCV NS3 helicase; purchased Prospec Inc. (Ness-Ziona, Israel)
Method: The random-coil oligonucleotides ON1 (100 μM) and ON2 (100 μM) were incubated in Tris buffer (20 mM, pH 7.0). The solution was heated at a temperature of 72-98° C., in particular 95° C., for at least 30 seconds in particular 10 min, cooled to room temperature at 0.1° C./s, and further incubated at room temperature for 1 hour to ensure formation of the duplex substrate. The annealed product was stored at −20° C. before use. For assaying enzyme activity, 50 μL of Tris buffered solution (5 mM Tris-HCl, 5 mM NaCl, 1 mM MgCl2, 1 mM ATP, 0.1 mM DTT, pH 7.9) with the indicated concentrations of helicase or S1, Endo, DpnI, ExoI, EcoRI, RNase, DNase, and SSB were added to a solution containing the duplex substrate (0.25 μM). The mixture was heated to 37° C. for at least 30 minutes, e.g. 2 hours, to allow the indicated enzymes-catalyzed unwinding of the duplex substrate to take place. The duplex unwinding reaction was quenched by the addition of EDTA at a final concentration of 20 mM, and the mixture was subsequently diluted using Tris buffer (20 mM Tris, 20 mM KCl, 150 mM NH4Ac, pH 7.2) to a final volume of 500 μL. […] Emission spectra were recorded in the 500-720 nm range using an excitation wavelength of 360 nm.
For the detection of helicase activity in cell extract, 50 μL of Tris buffered solution (5 mM Tris-HCl, 5 mM NaCl, 1 mM MgCl2, 1 mM ATP, 0.1 mM DTT, pH 7.9) and the indicated concentrations of helicase were added to a solution containing the duplex substrate (0.25 μM) and cell extract. The mixture was heated to 37° C. for at least 30 minutes, e.g. 2 hours, to allow the helicase-catalyzed unwinding of the duplex substrate to take place. The duplex unwinding reaction was quenched by the addition of EDTA at a final concentration of 20 mM, and the mixture was subsequently diluted using Tris buffer (20 mM Tris, 20 mM KCl, 150 mM NH4Ac, pH 7.2) to a final volume of 500 μL. Finally, 1 μM of complex 9 was added to the mixture. Emission spectra were recorded in the 500-720 nm range using an excitation wavelength of 360 nm.

T2 sequence (P27958 1027-1657): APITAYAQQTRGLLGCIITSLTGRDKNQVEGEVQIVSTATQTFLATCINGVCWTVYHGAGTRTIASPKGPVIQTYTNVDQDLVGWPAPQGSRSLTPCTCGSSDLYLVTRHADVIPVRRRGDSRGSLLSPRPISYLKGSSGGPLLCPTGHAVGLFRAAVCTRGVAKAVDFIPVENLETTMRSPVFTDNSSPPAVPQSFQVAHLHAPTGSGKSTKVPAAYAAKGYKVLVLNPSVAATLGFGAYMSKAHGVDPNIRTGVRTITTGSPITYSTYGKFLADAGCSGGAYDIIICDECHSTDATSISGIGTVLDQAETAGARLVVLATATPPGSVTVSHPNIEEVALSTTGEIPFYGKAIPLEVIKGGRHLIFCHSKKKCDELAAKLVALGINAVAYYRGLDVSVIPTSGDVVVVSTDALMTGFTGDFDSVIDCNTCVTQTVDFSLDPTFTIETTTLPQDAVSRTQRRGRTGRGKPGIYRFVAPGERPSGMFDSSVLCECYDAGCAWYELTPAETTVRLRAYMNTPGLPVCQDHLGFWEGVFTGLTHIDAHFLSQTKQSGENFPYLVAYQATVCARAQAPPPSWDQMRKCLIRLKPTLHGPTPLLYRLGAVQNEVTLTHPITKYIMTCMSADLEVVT
T1 sequence (P27958 1027-1657): as above

F[P-](F)(F)(F)(F)F.c1ccc(-c2ccc3ccc4ccc(-c5ccccc5)[n+]5c4c3[n+]2[Ir-3]523([c]4ccccc4-n4ccc[n+]42)[c]2ccccc2-n2ccc[n+]23)cc1 [Complex 1]
Lifetime [1]: 3.29 μs | λem [1]: 629 nm | Quantum yield [1]: 0.13 | luminescence enhancement in the presence of helicase only [2]: enhanced in the presence of helicase only

Cc1c(C)c2cccnc2c2ncccc12.Cc1c[c-]c(-c2ccccn2)cc1.Cc1c[c-]c(-c2ccccn2)cc1.F[P-](F)(F)(F)(F)F.[Ir+3] [Complex 2]
Lifetime [1]: 0.74 μs | λem [1]: 577 nm | Quantum yield [1]: 0.057 | luminescence enhancement in the presence of helicase only [2]: enhanced in the presence of helicase only

Cc1cccc2[n+]1[Ir-3]13([c]4ccccc4-2)([c]2ccccc2-c2cccc(C)[n+]21)[n+]1ccc(-c2ccccc2)c2ccc4c(-c5ccccc5)cc[n+]3c4c21.F[P-](F)(F)(F)(F)F [Complex 5]
selectivity of luminescence response for G-quadruplex DNA over dsDNA and ssDNA [3]: non-selective for G-quadruplex DNA | Lifetime [1]: 1.23 μs | λem [1]: 590 nm | Quantum yield [1]: 0.12

F[P-](F)(F)(F)(F)F.[Ir+3].[c-]1ccccc1-c1ncco1.[c-]1ccccc1-c1ncco1.c1ccc(-c2ccccn2)nc1 [Complex 6]
selectivity of luminescence response for G-quadruplex DNA over dsDNA and ssDNA [3]: non-selective for G-quadruplex DNA | Lifetime [1]: 0.28 μs | λem [1]: 580 nm | Quantum yield [1]: 0.089

Clc1cc2cccnc2c2ncccc12.F[P-](F)(F)(F)(F)F.[Ir+3].[c-]1ccccc1-c1ccc2ccccc2n1.[c-]1ccccc1-c1ccc2ccccc2n1 [Complex 7]
selectivity of luminescence response for G-quadruplex DNA over dsDNA and ssDNA [3]: selective response for G-quadruplex DNA | Lifetime [1]: 1.34 μs | λem [1]: 571 nm | Quantum yield [1]: 0.056 | luminescence enhancement in the presence of helicase only [2]: not showing any luminescence enhancement towards helicase

Clc1cc[n+]2c3c1ccc1c(Cl)cc[n+](c13)[Ir-3]213([c]2ccccc2-c2ccc4ccccc4[n+]21)[c]1ccccc1-c1ccc2ccccc2[n+]13.F[P-](F)(F)(F)(F)F [Complex 10]
Lifetime [1]: 2.89 μs | λem [1]: 590 nm | Quantum yield [1]: 0.086

Cc1ccc2ccc3ccc(C)[n+]4c3c2[n+]1[Ir-3]412([c]3ccccc3-c3ccc4ccccc4[n+]31)[c]1ccccc1-c1ccc3ccccc3[n+]12.F[P-](F)(F)(F)(F)F [Complex 11]
Lifetime [1]: 1.96 μs | λem [1]: 570 nm | Quantum yield [1]: 0.087

Cc1cc(-c2ccccc2)c2ccc3c(-c4ccccc4)cc(C)[n+]4c3c2[n+]1[Ir-3]412([c]3ccccc3-c3ccc4ccccc4[n+]31)[c]1ccccc1-c1ccc3ccccc3[n+]12.F[P-](F)(F)(F)(F)F [Complex 12]
Lifetime [1]: 1.84 μs | λem [1]: 575 nm | Quantum yield [1]: 0.063

F[P-](F)(F)(F)(F)F.c1cc[c]2c(c1)-c1ccc3ccccc3[n+]1[Ir-3]213([c]2ccccc2-c2ccc4ccccc4[n+]21)[n+]1cccc2c4nccnc4c4ccc[n+]3c4c21 [Complex 13]
Lifetime [1]: 4.61 μs | λem [1]: 568 nm | Quantum yield [1]: 0.067

F[P-](F)(F)(F)(F)F.c1ccc(-c2cc[n+]3c(c2)-c2cc(-c4ccccc4)cc[n+]2[Ir-3]324([c]3ccccc3-c3ccc5ccccc5[n+]32)[c]2ccccc2-c2ccc3ccccc3[n+]24)cc1 [Complex 14]
Lifetime [1]: 4.586 μs | λem [1]: 560 nm | Quantum yield [1]: 0.15

Clc1cc2ccc[n+]3c2c2c1ccc[n+]2[Ir-3]312([c]3ccccc3-c3[nH]c4ccccc4[n+]31)[c]1ccccc1-c1[nH]c3ccccc3[n+]12.F[P-](F)(F)(F)(F)F [Complex 15]
Lifetime [1]: 2.71 μs | λem [1]: 620 nm | Quantum yield [1]: 0.092

Clc1cc2cccnc2c2ncccc12.F[P-](F)(F)(F)(F)F.[Ir+3].[c-]1ccccc1-c1ccccn1.[c-]1ccccc1-c1ccccn1 [Complex 17]
Lifetime [1]: 2.87 μs | λem [1]: 608 nm | Quantum yield [1]: 0.078

Brc1c(Br)c(Br)c2n[nH]nc2c1Br [TBBT, reference compound]
inhibitory activity towards HCV NS3 helicase [4]: displayed inhibitory activity

O=C(O)c1cn(C2CC2)c2cc(N3CCNCC3)c(F)cc2c1=O [ciprofloxacin, reference compound]
decrease of luminescence signal of the system ([4]; 10 μM of ciprofloxacin): about 40% | luminescence signal of the system in the presence of inhibitor ([4]; ciprofloxacin 0, 1, 2.5, 5, 10, 20 μM): diminished in the presence of ciprofloxacin in a dose-dependent manner

Cc1ccc(C(=O)Nc2ccc(S(=O)(=O)O)c3cc(S(=O)(=O)O)cc(S(=O)(=O)O)c23)cc1NC(=O)c1cccc(NC(=O)Nc2cccc(C(=O)Nc3cc(C(=O)Nc4ccc(S(=O)(=O)O)c5cc(S(=O)(=O)O)cc(S(=O)(=O)O)c45)ccc3C)c2)c1 [suramin, reference compound]
inhibitory activity towards HCV NS3 helicase [4]: displayed inhibitory activity

single-stranded DNA binding protein: single-stranded DNA binding protein (SSB) purchased from New England Biolabs
response of the complex 9+G-quadruplex DNA system to other enzymes or proteins (emission intensity) ([4]; selectivity test, enzyme in place of helicase): relatively low emission enhancement
